From article PMC10709440, “High-throughput ligand profile characterization in novel cell lines expressing seven heterologous insect olfactory receptors for the detection of volatile plant biomarkers” (Scientific Reports, 2023)
Where two headings read alike, the source gives them in different places.

Legend:
Drosophila OR10a = biological target: T1, Drosophila OR10a (Drosophila melanogaster, UniProt Q9VYZ1); test: Calcium ion fluorescence (GCaMP6) assay, OR10a stable HEK293 cell line; type: cell-based; details: for EC50: single-concentration estimate from 100 µM, plate 2019.12.05; for OR10a response (VUAA1-normalized) at 1 μM / OR10a response (VUAA1-normalized) at 10 μM / OR10a response (VUAA1-normalized) at 100 μM: OR10a cell line; for OR10a response (VUAA1-normalized) at 1 μM: VOC concentration 1 μM; for OR10a response (VUAA1-normalized) at 10 μM: VOC concentration 10 μM; for OR10a response (VUAA1-normalized) at 100 μM: VOC concentration 100 μM
T1 construct: expressed in transfected cells
T1 sequence (Q9VYZ1 1-406): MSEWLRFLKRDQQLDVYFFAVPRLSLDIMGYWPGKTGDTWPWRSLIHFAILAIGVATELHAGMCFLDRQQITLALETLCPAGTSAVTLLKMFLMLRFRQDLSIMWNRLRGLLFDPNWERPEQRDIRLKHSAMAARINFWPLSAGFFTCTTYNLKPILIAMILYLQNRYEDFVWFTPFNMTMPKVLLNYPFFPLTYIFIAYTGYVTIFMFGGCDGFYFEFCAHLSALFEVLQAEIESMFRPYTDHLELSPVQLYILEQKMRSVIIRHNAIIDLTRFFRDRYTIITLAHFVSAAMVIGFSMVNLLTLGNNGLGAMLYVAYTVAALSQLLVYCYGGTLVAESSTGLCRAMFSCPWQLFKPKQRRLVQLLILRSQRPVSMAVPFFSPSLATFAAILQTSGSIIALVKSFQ
T1 sequence (Q9VNB5 1-486 partner): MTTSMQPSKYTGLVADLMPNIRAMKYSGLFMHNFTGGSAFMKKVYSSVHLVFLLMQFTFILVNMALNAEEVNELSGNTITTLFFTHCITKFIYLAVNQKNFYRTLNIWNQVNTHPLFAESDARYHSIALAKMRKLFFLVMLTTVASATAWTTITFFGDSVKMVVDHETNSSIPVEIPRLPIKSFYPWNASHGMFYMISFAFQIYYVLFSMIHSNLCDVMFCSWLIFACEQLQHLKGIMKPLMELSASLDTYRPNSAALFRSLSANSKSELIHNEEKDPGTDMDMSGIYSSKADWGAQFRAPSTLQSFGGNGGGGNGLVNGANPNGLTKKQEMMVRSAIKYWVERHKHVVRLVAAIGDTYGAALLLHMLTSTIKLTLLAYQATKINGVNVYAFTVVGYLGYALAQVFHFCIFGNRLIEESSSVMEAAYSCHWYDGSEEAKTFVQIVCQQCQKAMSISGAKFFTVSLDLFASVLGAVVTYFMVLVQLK
How it was run: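 HEK293 lines stably expressing each Drosophila OR with GCaMP6, doxycycline-induced (1 μg/mL) 48 or 72 h. Fluorescence recorded 5 s baseline then 30 s after VOC injection at pH 7.3; ΔF=(FMAX−F0)/F0, normalized to 50 µM VUAA1 response per line, triplicate wells averaged; concentration series 0.01–100 μM.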

Drosophila OR98a = biological target: T2, Drosophila OR98a (Drosophila melanogaster, UniProt Q9VAZ3); test: Calcium ion fluorescence (GCaMP6) assay, OR98a stable HEK293 cell line; type: cell-based; details: for OR98a response (VUAA1-normalized) at 1 μM / OR98a response (VUAA1-normalized) at 10 μM / OR98a response (VUAA1-normalized) at 100 μM: OR98a cell line; for OR98a response (VUAA1-normalized) at 1 μM: VOC concentration 1 μM; for OR98a response (VUAA1-normalized) at 10 μM: VOC concentration 10 μM; for OR98a response (VUAA1-normalized) at 100 μM: VOC concentration 100 μM
T2 construct: expressed in transfected cells
T2 sequence (Q9VAZ3 1-397): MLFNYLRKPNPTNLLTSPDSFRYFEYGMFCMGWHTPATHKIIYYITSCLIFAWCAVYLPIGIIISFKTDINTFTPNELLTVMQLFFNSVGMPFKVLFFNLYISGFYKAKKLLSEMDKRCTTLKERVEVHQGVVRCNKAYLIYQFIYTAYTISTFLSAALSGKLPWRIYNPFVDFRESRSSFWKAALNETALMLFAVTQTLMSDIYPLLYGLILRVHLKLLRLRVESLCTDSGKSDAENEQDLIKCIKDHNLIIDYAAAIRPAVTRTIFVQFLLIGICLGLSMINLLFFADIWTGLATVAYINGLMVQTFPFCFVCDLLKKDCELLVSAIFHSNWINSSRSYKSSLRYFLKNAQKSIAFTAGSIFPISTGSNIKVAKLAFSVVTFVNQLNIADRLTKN
T2 sequence (Q9VNB5 1-486 partner): T1 sequence (Q9VNB5 1-486 partner)
Procedure: These VUAA1 normalized ∆F values were used to compare the different receptors and ligands.
The concentration-dependent effect of the reference ligands on their cognate cell lines was examined in more detail. Twelve different ligand concentrations were measured on each cell line in an overall 0.01 μM to 100 μM concentration range with 5 repetitions with three technical replicates each time.
Twelve thousand to 18,000 cells were plated into each well of a black wall, transparent bottom 384-well microplate (Greiner) 48 h or 72 h before the measurements and were simultaneously treated with 1 μg/mL doxycycline. […] The plate has 24 columns, thus we could record responses in up to eight different cell lines in each plate. On the day of the experiment, the growth medium was replaced with 20 µL assay buffer/well (140 mM NaCl, 5 mM KCl, 2 mM CaCl2, 1 mM MgCl2, 5 mM HEPES-Na, 20 mM glucose, pH 7.3, 340 mOsm). […] Baseline fluorescence (F0) was recorded for 5 s, after which 7 µL VOC buffer (140 mM NaCl, 5 mM KCl, 2 mM CaCl2, 1 mM MgCl2, 5 mM HEPES-Na, 31 mM glucose, 0.1% DMSO, pH 7.3, 340 mOsm) was injected into each well in one row and the fluorescence response was recorded for an additional 30 s, at a rate of one read/sec. VOC solutions (VOC buffer with 4× concentration of the final measured VOC concentration, 9 µL/well was injected) were measured on the same wells in a second round with the same protocol. Each individual concentration of a specific VOC sample was recorded in three wells for the same cell line on the same microplate. The raw data were exported in xls file format, F0 and FMAX values, and the fluorescence intensity changes (∆F) were calculated in Excel (Microsoft) (Supplementary file Data summary.xlsx) using the following equation: ΔF=FMAX-F0/F0 (see also Fig. 1C). On each plate, we recorded the response of each cell line to 50 µM VUAA1. The average of these ∆F values of each cell line were used to calculate the VUAA1-normalized values for the rest of the plate, by dividing VOC response ∆F values by the average VUAA1 response ∆F value of the corresponding OR cell line. Each VOC-OR combination was measured three times as technical replicates. […] The average of these replicates were used as one ∆F and VUAA1-normalized ∆F in the following analysis.
In the next rows we tested the reference VOCs (or other VOCs known to activate the corresponding cell lines), in order to test if all cell lines are responsive. The remaining rows were used to test VOCs with unknown effect.
The recorded FMAX, F0, ∆F, VUAA1-normalized ∆F values, as well as the OR name, the name of the tested sample, and the final concentration for each well were copied into supplementary file Data summary.xlsx, that was used to summarize all the plates recorded. Here, the averages of the measurements were calculated for each receptor-VOC-concentration combination.

[1] = 100 µM, OR10a clone G5, single plate 2019.12.05
[2] = HEK293, 1 μM VOC, 50 μM VUAA1 = 1, responses not exceeding 0.05 considered 0, read-out: OR10a Average response (VUAA1-normalized)
[3] = HEK293, 10 μM VOC, 50 μM VUAA1 = 1, responses not exceeding 0.05 considered 0, read-out: OR10a Average response (VUAA1-normalized)
[4] = HEK293, 100 μM VOC, 50 μM VUAA1 = 1, responses not exceeding 0.05 considered 0, read-out: OR10a Average response (VUAA1-normalized)
[5] = ligand concentration 1 (unit not given), threshold 0.05, below shown as 0
[6] = ligand concentration 10 (unit not given), threshold 0.05, below shown as 0
[7] = ligand concentration 100 (unit not given), threshold 0.05, below shown as 0
[8] = HEK293, read-out: Average response
[9] = HEK293, read-out: OR98a Average response (VUAA1-normalized)
[10] = HEK293, read-out: OR98a response (VUAA1-normalized response)
[11] = ligand concentration 1 (unit not given), 0.05 threshold, values below shown as 0
[12] = ligand concentration 10 (unit not given), 0.05 threshold, values below shown as 0
[13] = ligand concentration 100 (unit not given), 0.05 threshold, values below shown as 0

## COC(=O)c1ccccc1 [methyl benzoate]
Drosophila OR10a; [1]
  DF norm, all technical replicates: 0.8079
  DF norm, outlier technical replicates removed: 0.8079
  DF, outlier technical replicates removed: 1.408
Drosophila OR10a; 100 µM, OR10a clone G5, single plate 2019.12.05, xc+0.1%DMSO
  DF, all technical replicates: 1.408
Drosophila OR10a; EC50, all technical replicates, OR10a clone G5
  EC50: 23.8 µM
Drosophila OR10a; EC50, outlier technical replicates removed, OR10a clone G5
  EC50: 23.8 µM
Drosophila OR10a; [2]
  activation at 1 µM: 31%
Drosophila OR10a; [3]
  activation at 10 µM: 64%
Drosophila OR10a; [4]
  activation at 100 µM: 67%
Drosophila OR10a
  OR10a response (VUAA1-normalized) at 1 μM: 0.31
  OR10a response (VUAA1-normalized) at 10 μM: 0.64
  OR10a response (VUAA1-normalized) at 100 μM: 0.67
Drosophila OR10a; [5]
  DF norm AVERAGE OR10a: 0.3063
Drosophila OR10a; [6]
  DF norm AVERAGE OR10a: 0.6425
Drosophila OR10a; [7]
  DF norm AVERAGE OR10a: 0.6719
Drosophila OR98a; [8]
  activation at 1 µM: 7.5%
  activation at 10 µM: 0%
  activation at 100 µM: 12%
Drosophila OR98a; [9]
  activation at 1 µM: 7%
  activation at 10 µM: 0%
  activation at 100 µM: 12%
Drosophila OR98a
  OR98a response (VUAA1-normalized) at 1 μM: 0.075
  OR98a response (VUAA1-normalized) at 10 μM: 0.00
  OR98a response (VUAA1-normalized) at 100 μM: 0.12
Drosophila OR98a; [5]
  DF norm AVERAGE OR98a: 0.07495
Drosophila OR98a; [6]
  DF norm AVERAGE OR98a: 0
Drosophila OR98a; [7]
  DF norm AVERAGE OR98a: 0.1166

## Cc1ccc(C)c(C)c1 [1,2,4-trimethylbenzene]
Drosophila OR10a; [2]
  activation at 1 µM: 7%
Drosophila OR10a; [3]
  activation at 10 µM: 0%
Drosophila OR10a; [4]
  activation at 100 µM: 2.53%
Drosophila OR10a; HEK293, read-out: OR10a response (VUAA1-normalized response), VOC concentration 1 μM
  activation at 1 µM: 7%
Drosophila OR10a; HEK293, read-out: OR10a response (VUAA1-normalized response), VOC concentration 10 μM
  activation at 10 µM: 0%
Drosophila OR10a; HEK293, read-out: OR10a response (VUAA1-normalized response), VOC concentration 100 μM
  activation at 100 µM: 0%
Drosophila OR98a; [8]
  activation at 1 µM: 0%
  activation at 10 µM: 13%
  activation at 100 µM: 5%
Drosophila OR98a; [10]
  activation at 1 µM: 0%
  activation at 10 µM: 13%
  activation at 100 µM: 5%
Drosophila OR98a; concentration 1, normalized fluorescence change, values below 0.05 threshold given as 0
  DF norm AVERAGE OR98a: 0
Drosophila OR98a; concentration 10, normalized fluorescence change, values below 0.05 threshold given as 0
  DF norm AVERAGE OR98a: 0.1254
Drosophila OR98a; concentration 100, normalized fluorescence change, values below 0.05 threshold given as 0
  DF norm AVERAGE OR98a: 0.05229

## Cc1ccccc1 [toluene]
Drosophila OR10a; HEK293, read-out: OR10a Average response (VUAA1-normalized), 1 μM VOC, 50 μM VUAA1 = 1, responses not exceeding 0.05 considered 0
  activation at 1 µM: 3%
Drosophila OR10a; HEK293, read-out: OR10a Average response (VUAA1-normalized), 10 μM VOC, 50 μM VUAA1 = 1, responses not exceeding 0.05 considered 0
  activation at 10 µM: 0%
Drosophila OR10a; HEK293, read-out: OR10a Average response (VUAA1-normalized), 100 μM VOC, 50 μM VUAA1 = 1, responses not exceeding 0.05 considered 0
  activation at 100 µM: 7%
Drosophila OR10a
  OR10a response (VUAA1-normalized) at 1 μM: 0.00
  OR10a response (VUAA1-normalized) at 10 μM: 0.00
  OR10a response (VUAA1-normalized) at 100 μM: 0.07
Drosophila OR10a; [11]
  DF norm AVERAGE OR10a: 0
Drosophila OR10a; [12]
  DF norm AVERAGE OR10a: 0
Drosophila OR10a; [13]
  DF norm AVERAGE OR10a: 0.07043
Drosophila OR98a; [8]
  activation at 1 µM: 0%
  activation at 10 µM: 4%
  activation at 100 µM: 3.33%
Drosophila OR98a
  OR98a response (VUAA1-normalized) at 1 μM: 0.00
  OR98a response (VUAA1-normalized) at 10 μM: 0.00
  OR98a response (VUAA1-normalized) at 100 μM: 0.00
Drosophila OR98a; [11]
  DF norm AVERAGE OR98a: 0
Drosophila OR98a; [12]
  DF norm AVERAGE OR98a: 0
Drosophila OR98a; [13]
  DF norm AVERAGE OR98a: 0
